From patent US9763956B2, “Diagnostic and treatment methods in subjects having or at risk of developing resistance to cancer therapy” (The Broad Institute, Inc., priority 2012, dated 2017)
Entries after “also recorded” stand apart in the source; their conditions may differ.

What was measured:
[1] = tested on: Notch inhibitor resistant (persister) T-ALL cell lines; assay: Cell viability / proliferation (Celltiterglo luminescence); type: cell-based, human; conditions: compared to naïve cells, viability read on day 6
Procedure: (§1) Notch inhibitor sensitive and resistant T-ALL cell lines were plated in 96 well plates and treated with vehicle, 1 uM GSI and/or increasing concentrations of the bet inhibitor JQ1. Cell viability was determined by measuring luminescence after Celltiterglo® (Promega) addition on day 6. Apoptosis was measured using Caspaseglo® (Promega) on day 4.

[2] = tested on: MYC in persister cells; assay: MYC expression, Western blot (FIG. 17A); type: cell-based, human
Procedure: (§2) FIG. 17A is two photographs of western blots show MYC expression in naïve and persister cells after 3 day treatment with 2 μM AKT inhibitor, MK-2206, or 10 nM mTOR inhibitor, Rapamycin. FIG. 17B depicts graphs showing BRD4 binding at the MYC and BCL2 promoters.

[3] = tested on: Notch inhibitor resistant T-ALL cell lines; assay: Apoptosis (Caspaseglo); type: cell-based, human; conditions: resistant leukemia cells compared to naïve; day 4
Procedure: as §1

[4] = tested on: Bcl-2 in naïve leukemia cells; assay: Bcl-2 protein level, Western blot (FIG. 9B); type: cell-based, human; conditions: naïve population
[5] = Gastrointestinal toxicity, Periodic acid-Schiff (PAS) stain in Balb/c mice; type: in vivo, mouse; conditions: JQ1 given in addition to DBZ
Procedure: Balb/c mice were treated with DBZ+JQ1, DBZ, or vehicle alone. Hyperproliferation of globlet cells was measured by Periodic acid-Schiff (PAS) stain.

[6] = tested on: Notch inhibitor sensitive (naïve) T-ALL cell lines; assay: Cell viability / proliferation (Celltiterglo luminescence); type: cell-based, human; conditions: JQ1 concentrations that arrest persisters
Procedure: as §1

[7] = tested on: Bcl-2 in GSI resistant leukemia cells; assay: Bcl-2 protein level, Western blot (FIG. 9B); type: cell-based, human; conditions: GSI resistant (persister) cells
[8] = tested on: MYC in naïve T-ALL cells; assay: MYC expression, Western blot (FIG. 12B, 17A); type: cell-based, human
Procedure: as §2

[9] = tested on: Notch inhibitor sensitive T-ALL cell lines; assay: Long-term culture of Notch inhibitor sensitive T-ALL cell lines with GSI (resistance modeling); type: cell-based, human
Procedure: Notch inhibitor sensitive T-ALL cell lines were cultured in the presence of 1 μM GSI in vitro. Cells were plated at 0.25×10^6/ml in 20 mL and split every 3-4 days. Cell viability, cell size and cell cycle were measured every 3-4 days. […] GSI-treated cells stopped proliferating between day 14 to 30 of culture, but eventually started proliferating again despite the presence of GSI with subsequent growth rates being equal or similar to untreated cells.

Cc1sc2c(c1C)C(c1ccc(Cl)cc1)=N[C@@H](CC(=O)OC(C)(C)C)c1nnc(C)n1-2 (single isomer, unassigned) [JQ1 enantiomer]
proliferation / survival of resistant (persister) leukemia cells [1]: no effect

Cc1sc2c(c1C)C(c1ccc(Cl)cc1)=N[C@@H](CC(=O)OC(C)(C)C)c1nnc(C)n1-2 [JQ1]
MYC expression [2]: significantly reduced MYC expression | apoptosis [3]: increase in apoptosis | Bcl-2 expression [4]: little effect | intestinal villi architecture (PAS stain) [5]: largely ameliorated villi architecture | proliferation / survival of resistant (persister) leukemia cells [1]: decrease in proliferation; also recorded: proliferation arrest | proliferation of naïve T-ALL cells [6]: well tolerated | Bcl-2 protein level / expression [7]: inhibited; also recorded: decreased level of Bcl-2 protein; also recorded: significantly reduced Bcl-2 expression | MYC expression [8]: did not alter MYC

C[C@H](NC(=O)Cc1cc(F)cc(F)c1)C(=O)N[C@H]1N=C(c2ccccc2)c2ccccc2N(C)C1=O [compound E]
GSI concentration tolerated by persister cells relative to the IC50 [9]: more than 50 fold

CN(C)CC[C@H](CSc1ccccc1)Nc1ccc(S(=O)(=O)NC(=O)c2ccc(N3CCN(Cc4ccccc4-c4ccc(Cl)cc4)CC3)cc2)cc1[N+](=O)[O-] [ABT-737]
proliferation / survival of resistant (persister) leukemia cells [1]: effectively killed persister cells
